These results are taken from ChEMBL document CHEMBL1201862, “PubChem BioAssay data set” (2004).

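Dose response: 5 concentrations. Exposure: 48 h. Format: 96-well plates. Endpoint: linear interpolation; highest concentration if not reached. At the GI50, growth is halved.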 The source made the active and inactive calls. No stated cut-off is given here; in the data, active = GI50 up to about 1.1 µM and inactive = higher. Where a SMILES comes first, the peptide text is derived from it. [ ]: non-standard residue; d: D form. The star is where a group is joined. Bn2Val = CC(C)[C@@H](C(=O)*)N(Cc1ccccc1)Cc1ccccc1; NH(3,4-diMeO-benzyl) = COc1ccc(CN*)cc1OC; NMeV = CN[C@H](C(=O)O)C(C)C

Common to all, as to experiment: DTP human tumour cell line panel, 48 h
The test system of assay [1] is T47D.
In assay [2] the test system is A549.
The test system of assay [3] is NCI-H522.
For assay [4], the system named is SK-MEL-5.
Assay [5] concerns HCT-15.
The test system of assay [6] is MDA-N.
Assay [7] deals with MDA-MB-231.
Assay [8] concerns COLO 205.
The subject of assay [9] is SNB-75.
Assay [10] has as its system RPMI-8226.
The subject of assay [11] is Hs-578T.
Assay [12] concerns PC-3.
The test system of assay [13] is ACHN.
Assay [14] has as its system SF-268.
The test system of assay [15] is MDA-MB-435.
The test system of assay [16] is SW-620.
The test system of assay [17] is SK-MEL-2.
Assay [18] concerns KM12.
For assay [19], the system named is UACC-257.
For assay [20], the system named is SK-OV-3.

As a reminder, the GI50 is the concentration giving 50% growth inhibition.

With `COc1cc(S(=O)(=O)Nc2ccc(-c3csc(N)n3)cc2)ccc1Cl`, the GI50 is 7.87 µM (inactive) in assay [1]; 18.4 µM (inactive) in assay [2]; 17.9 µM (inactive) in assay [3]; 16.6 µM (inactive) in assay [4]; 20.1 µM in assay [5]; 19.4 µM (inactive) in [6]. In addition, the GI50 in assay [7] is 16.9 µM (inactive); in assay [8] it was 17 µM (inactive); in assay [9] it was 21.4 µM (inactive); in assay [10] it was 19.5 µM (inactive); in [11], 53.7 µM (inactive); in [12], 15.3 µM (inactive). Also, the GI50 is 17.4 µM (inactive) in assay [13]; 34.4 µM (inactive) in assay [14]; 20.8 µM (inactive) in assay [15]; 24.3 µM (inactive) in [16]; 18.8 µM (inactive) in assay [17].
For `CCNC1=C(NC(=O)c2ccc(F)cc2)C(=O)c2ccccc2C1=O`, the GI50 in assay [1] was 47.1 µM (inactive); in [2], 70.8 µM (inactive); in assay [3], 21 µM (inactive); in [4], 35 µM (inactive); in [5], 30.5 µM; in assay [6] it was 33.6 µM (inactive). Further, the GI50 in assay [7] is 44.8 µM (inactive); in assay [8], 26.7 µM (inactive); in assay [9] it was 62.2 µM (inactive); in assay [10], > 100 µM (inactive); in assay [18], 49.9 µM (inactive); in [11], > 100 µM (inactive). In addition, the GI50 was 17.3 µM (inactive) in assay [12]; 15.8 µM (inactive) in assay [19]; > 100 µM (inactive) in assay [13]; > 100 µM (inactive) in assay [14]; 18.2 µM (inactive) in assay [15]; 32.2 µM (inactive) in assay [16]. The GI50 in [20] is 18.5 µM (inactive).
As for `CC1CNc2ccccc2N=C1NN` (centres undefined), the GI50 in assay [1] is > 100 µM (inactive); in assay [2], > 100 µM (inactive); in [3], > 100 µM (inactive); in assay [4], > 100 µM (inactive); in assay [5] it was greater than 100 µM; in assay [6], > 100 µM (inactive). Moreover, the GI50 in assay [7] is > 100 µM (inactive); in [8], > 100 µM (inactive); in assay [10], > 36.5 µM (inactive); in [18], > 100 µM (inactive); in [11] it was > 100 µM (inactive); in assay [12], > 100 µM (inactive). The GI50 in assay [19], in assay [13], in assay [14], in assay [15], in [16] and in assay [20] was > 100 µM (inactive) throughout. The GI50 in [17] was > 100 µM (inactive).
For `O=C(c1ccccn1)C1(N2CCCCC2)CCCCC1`, the GI50 in assay [1] was 46 µM (inactive); in assay [2] it was > 100 µM (inactive); in assay [3], 15.5 µM (inactive); in assay [4], > 100 µM (inactive); in [5], greater than 100 µM; in assay [6], > 100 µM (inactive). Further, the GI50 in assay [7] is > 100 µM (inactive); in assay [8], > 100 µM (inactive); in assay [10] it was 50.2 µM (inactive); in [18] it was > 100 µM (inactive); in assay [11] it was 15.5 µM (inactive); in assay [12], > 100 µM (inactive). The GI50 is > 100 µM (inactive) in assay [19]; > 100 µM (inactive) in assay [13]; 17.5 µM (inactive) in assay [14]; > 100 µM (inactive) in assay [15]; > 100 µM (inactive) in [16]; > 100 µM (inactive) in [20]. Also, the GI50 in assay [17] is > 100 µM (inactive).
In the case of `COc1c(OC)c(O)c2c(=O)c(OC)c(-c3ccc4c(c3)OCO4)oc2c1O`, the GI50 is 24.5 µM (inactive) in assay [1]; > 100 µM (inactive) in assay [2]; > 100 µM (inactive) in [3]; 38.2 µM (inactive) in assay [4]; greater than 100 µM in assay [5]; > 100 µM (inactive) in assay [6]. For the same molecule, the GI50 in assay [7], in [8], in assay [9], in [18], in assay [11] and in assay [12] was > 100 µM (inactive) throughout. Further, the GI50 in [19] is 67 µM (inactive); in assay [13] it was > 100 µM (inactive); in assay [14], > 100 µM (inactive); in assay [15], > 100 µM (inactive); in assay [16] it was > 100 µM (inactive); in assay [20] it was > 100 µM (inactive). The GI50 in [17] is > 100 µM (inactive).
Take `O=c1c2c3c(sc2nc(S)n1-c1ccccc1)CCCc1ccc([N+](=O)[O-])cc1-3`: the GI50 in assay [1] was 17.5 µM (inactive); in [2] it was 42.9 µM (inactive); in assay [3], 13.9 µM (inactive); in assay [4], 25.7 µM (inactive); in assay [5] it was 22 µM; in assay [6] it was 86.5 µM (inactive). Also, the GI50 was > 100 µM (inactive) in [7]; > 100 µM (inactive) in assay [8]; 22.6 µM (inactive) in assay [10]; > 100 µM (inactive) in assay [18]; 87.3 µM (inactive) in assay [11]; 59.7 µM (inactive) in assay [12]. Moreover, the GI50 was 29.2 µM (inactive) in assay [19]; 81.3 µM (inactive) in assay [13]; 36.1 µM (inactive) in assay [14]; 49.5 µM (inactive) in assay [15]; 10.4 µM (inactive) in [16]; > 100 µM (inactive) in [20]. Moreover, the GI50 in assay [17] was > 100 µM (inactive).
Turning to `C[C@@]1(O)C2C3CC4C5C3C1[C@](O)(C42)[C@H]5Br` (some centres undefined), the GI50 was > 100 µM (inactive) in assay [1]; > 100 µM (inactive) in [2]; > 100 µM (inactive) in [3]; > 100 µM (inactive) in assay [4]; greater than 100 µM in assay [5]; > 100 µM (inactive) in assay [6]. Besides, the GI50 in assay [7], in [8], in assay [18], in assay [11], in assay [12] and in [19] was > 100 µM (inactive) each time. Also, the GI50 in [13], in assay [14], in assay [15], in assay [16] and in [17] was > 100 µM (inactive) in each case.
With `CN1c2ccccc2S(=O)(=O)n2c(COc3ccc(Cl)cc3)nnc21`, the GI50 is > 100 µM (inactive) in assay [1]; > 100 µM (inactive) in assay [2]; 31.3 µM (inactive) in assay [3]; > 100 µM (inactive) in assay [4]; greater than 100 µM in assay [5]; > 100 µM (inactive) in [6]. The GI50 in assay [7] was 44.8 µM (inactive); in [8], > 100 µM (inactive); in assay [18], > 100 µM (inactive); in assay [11] it was 43.4 µM (inactive); in assay [12], > 100 µM (inactive); in [19], > 100 µM (inactive). Moreover, the GI50 in [13] was > 100 µM (inactive); in [14], 55 µM (inactive); in assay [15], > 100 µM (inactive); in assay [16], > 100 µM (inactive); in assay [20], 77.1 µM (inactive); in [17], > 100 µM (inactive).
With `O=C1OCC2(CO1)CC1C=CC2C1` (centres undefined), the GI50 in assay [1] is > 100 µM (inactive); in assay [2] it was > 100 µM (inactive); in [3] it was > 100 µM (inactive); in assay [4] it was > 100 µM (inactive); in [5] it was greater than 100 µM; in assay [6], > 100 µM (inactive). The GI50 in assay [7], in assay [8], in assay [10], in [18], in assay [11] and in [12] was > 100 µM (inactive) each time. In addition, the GI50 in assay [19], in assay [13], in assay [14], in [15], in assay [16] and in [20] was > 100 µM (inactive) in each case. In addition, the GI50 in assay [17] is > 100 µM (inactive).
For `COc1ccc(CNC(=O)[C@@H]2CCCN2C(=O)[C@@H]2CCCN2C(=O)[C@H](C(C)C)N(C)C(=O)[C@@H](NC(=O)[C@H](C(C)C)N(Cc2ccccc2)Cc2ccccc2)C(C)C)cc1OC` (Bn2Val-V[NMeV]PP-{NH(3,4-diMeO-benzyl)}), the GI50 in [1] was 12.6 µM (inactive); in [2] it was 11.7 µM (inactive); in assay [3], 8.85 µM (inactive); in assay [4], 7.5 µM (inactive); in assay [5], 12.1 µM; in assay [6], 14.7 µM (inactive). Besides, the GI50 is 17.5 µM (inactive) in [7]; 9.71 µM (inactive) in assay [8]; 10.3 µM (inactive) in [9]; 21.4 µM (inactive) in assay [18]; 51.3 µM (inactive) in assay [11]; 6.15 µM (inactive) in assay [12]. Further, the GI50 in assay [19] is 11.3 µM (inactive); in assay [13], 13.7 µM (inactive); in assay [14] it was 21.3 µM (inactive); in assay [15] it was 12 µM (inactive); in assay [16] it was 12.8 µM (inactive); in assay [20], 16.9 µM (inactive). In addition, in assay [17], the GI50 was 13.4 µM (inactive).
For the molecule `COC(=O)C1=Nc2c(C)nn(-c3ccccc3)c2N=C(c2ccc(C)cc2)C1`, the GI50 in [1] was > 10 µM (inactive); in assay [2], > 10 µM (inactive); in [3], > 10 µM (inactive); in assay [4], > 10 µM (inactive); in [5], greater than 10 µM; in assay [6], > 10 µM (inactive). Besides, the GI50 in assay [7], in assay [8], in assay [9], in assay [10], in assay [18] and in assay [11] was > 10 µM (inactive) throughout. Moreover, the GI50 in assay [12], in [19], in assay [13], in assay [14], in assay [15] and in assay [16] was > 10 µM (inactive) each time. The GI50 in assay [20] is > 10 µM (inactive).
